Data set [1] addresses T1, Estrogen receptor (Homo sapiens, UniProt P03372).
T1 sequence (P03372 whole entry): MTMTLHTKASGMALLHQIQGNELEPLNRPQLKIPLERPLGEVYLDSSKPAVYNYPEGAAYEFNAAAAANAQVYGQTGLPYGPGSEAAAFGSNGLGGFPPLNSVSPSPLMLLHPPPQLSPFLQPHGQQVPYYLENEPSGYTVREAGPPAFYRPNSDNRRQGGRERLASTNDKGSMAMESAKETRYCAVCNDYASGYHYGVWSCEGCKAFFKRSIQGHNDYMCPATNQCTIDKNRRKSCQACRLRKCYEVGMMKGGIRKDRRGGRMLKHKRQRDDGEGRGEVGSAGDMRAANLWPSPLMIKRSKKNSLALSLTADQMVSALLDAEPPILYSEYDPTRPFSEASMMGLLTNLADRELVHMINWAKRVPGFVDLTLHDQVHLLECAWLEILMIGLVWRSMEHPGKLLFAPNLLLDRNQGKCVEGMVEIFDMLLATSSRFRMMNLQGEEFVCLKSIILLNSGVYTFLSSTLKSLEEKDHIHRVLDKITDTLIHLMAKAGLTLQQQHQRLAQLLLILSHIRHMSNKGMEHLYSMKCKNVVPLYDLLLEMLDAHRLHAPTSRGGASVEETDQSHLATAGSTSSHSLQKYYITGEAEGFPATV

Data set [2] concerns the target Estrogen receptor beta (Homo sapiens, UniProt Q92731).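 Also: recombinant ER-beta bound to coactivator SRC1 peptide in presence of estradiol agonist; inhibitors block coactivator peptide binding and lower the FRET signal.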
Data set [3] is described as follows: viability loss in THP-1 monocytes – THP-1 cells, cytotoxicity control for Vif-APOBEC3G degradation inhibitor project, dose response (AID 1117359). It is filed as functional. The note with it: THP-1.
A short description of data set [4]: HIV-1 Vif–A3G interaction blockers – biochemical, TR-FRET, GST-Vif 1-94, biotin-A3G peptide, dose response retest, primary screen (AID 1117319).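 Also: TR-FRET signal of purified GST-Vif binding a biotinylated A3G peptide; inhibitors lower the FRET signal by blocking Vif and A3G binding.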 It is filed as functional. In general terms: Time-resolved FRET reads energy transfer from a long-lived donor to a nearby acceptor.
Data set [5] addresses T2, Voltage-gated N-type calcium channel alpha-1B subunit/Amyloid beta A4 precursor protein-binding family A member 1 (Homo sapiens, UniProt Q00975+Q02410). It is filed as protein assay.
The target of data set [6] is T2, Voltage-gated N-type calcium channel alpha-1B subunit/Amyloid beta A4 precursor protein-binding family A member 1. It is filed as protein assay. The source holds these as a separate data set.
Data set [7] addresses Cytochrome P450 2C19 (Homo sapiens, UniProt P33261). The data set is described as follows: Cytochrome panel assay with activity outcomes. Panel member name: p450-cyp2c19 Compounds with AC50 equal or less than 10 uM are considered active. The data set is classed as functional. The note with it: read-out: AC50.
Data set [8] concerns the target 26S proteasome non-ATPase regulatory subunit 14 (Homo sapiens, UniProt O00487). The data set is described as follows: inhibition of proteasome subunit RPN11 – biochemical, fluorescence polarization, uHTS hits, confirmation (AID 602368). It is filed as functional. For orientation: Polarisation of emitted light reports the rotation of a fluorescent probe.
Data set [9] has as its target 72 kDa type IV collagenase (Homo sapiens, UniProt P08253). The data set can be described thus: Dose Response validation of uHTS RPN11 inhibitor hits using a MMP-2 Fluorescence assay. It is filed as functional.
In data set [10] the target is Prothrombin (Bos taurus, UniProt P00735). The data set can be described thus: thrombin protease inhibitors – biochemical, fluorescence polarization, uHTS hits, dose response (AID 602369). The data set is classed as functional.
Data set [11] concerns the target T3, Fibrinogen beta chain (Homo sapiens, UniProt P02675). The data set is described as follows: Fluorescence polarization-based biochemical high throughput dose response assay to identify inhibitors that disrupt the binding of a cyclic peptide (Tn6) to the fibrin proteolytic product D-Dimer and fragment E complex [DD(E )].
In data set [12] the target is T3, Fibrinogen beta chain. The data set can be described thus: Fluorescence polarization-based biochemical high throughput dose response assay to identify inhibitors that disrupt the binding of a cyclic peptide (Tn7) to the fibrin proteolytic product D-Dimer and fragment E complex [DD(E )].
In data set [13] the target is Cytochrome P450 3A4 (Homo sapiens, UniProt P08684).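 Also: CYP3A4 tested as one member of a cytochrome P450 panel screen.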
Data set [14] has as its target Heat shock protein HSP 90-alpha (Homo sapiens, UniProt P07900). The data set can be described thus: Luminescence-based dose response biochemical high throughput screening assay for inhibitors of the Heat Shock Protein 90 (HSP90). [Related pubchem assays: 1831 (Summary AID.), 1846 (Confirmation screen.), 1789 (Primary screen.)].
The target of data set [15] is T4, Protein skinhead-1 (Caenorhabditis elegans, UniProt P34707).
T4 sequence (P34707 whole entry): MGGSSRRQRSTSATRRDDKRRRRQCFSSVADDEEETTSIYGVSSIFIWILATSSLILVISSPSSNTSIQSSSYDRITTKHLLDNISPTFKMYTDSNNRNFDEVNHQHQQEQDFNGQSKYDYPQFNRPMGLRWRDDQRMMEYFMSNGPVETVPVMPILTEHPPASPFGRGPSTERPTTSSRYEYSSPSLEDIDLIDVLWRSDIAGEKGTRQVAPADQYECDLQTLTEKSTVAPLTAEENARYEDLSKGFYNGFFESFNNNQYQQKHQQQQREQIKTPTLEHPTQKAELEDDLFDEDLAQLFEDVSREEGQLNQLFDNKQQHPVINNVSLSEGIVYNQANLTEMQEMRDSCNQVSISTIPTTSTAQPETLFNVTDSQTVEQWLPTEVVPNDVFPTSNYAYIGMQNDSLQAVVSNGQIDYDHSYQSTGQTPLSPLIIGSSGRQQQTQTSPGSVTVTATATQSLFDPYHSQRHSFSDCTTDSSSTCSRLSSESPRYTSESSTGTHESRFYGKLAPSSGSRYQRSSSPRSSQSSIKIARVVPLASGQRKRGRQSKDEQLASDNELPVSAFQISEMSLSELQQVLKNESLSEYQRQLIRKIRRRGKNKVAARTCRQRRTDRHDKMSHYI
The data set is classed as functional.

Data set [16] in a line: Trypanosoma cruzi growth suppression in host cells – NIH3T3 host cells, beta-gal luminescence, confirmation (AID 2044).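 Also: intracellular parasites grown in NIH/3T3 mouse fibroblasts as host cells; luminescent beta-galactosidase reporter signal from transgenic T. cruzi replicating inside host cells; inhibitors lower the luminescence signal.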 The data set is classed as functional, cell-based.
Data set [17] in a line: NIH3T3 cell viability loss – ATP luminescence, mouse fibroblasts, counter-screen, dose response (AID 2010).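 Also: cells exposed to compound for about 90 hours before reading.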 It is filed as functional, cell-based. (In general: The purpose of a counterscreen is to sort out artefacts and off-target activity.)
Data set [18] can be described thus: viability loss in Vero cells – cytotoxicity control for Vif-APOBEC3G degradation inhibitor project, dose response (AID 1117358). It is filed as functional. The note with it: Vero.

Four molecules from ChEMBL document CHEMBL1201862, “PubChem BioAssay data set” (2004) can be followed below.

The source made the active and inactive calls.

In general, IC50 refers to the concentration that gives 50% inhibition. For orientation: CC50 means the concentration at which the toxic effect on the cells reaches its halfway point. As a reminder, the AC50 is the concentration at which the activity in the assay is half-maximal. One may read the EC50 as the concentration at which the effect is half-maximal.

T3 sequence (P02675 whole entry, the tested form may be a part): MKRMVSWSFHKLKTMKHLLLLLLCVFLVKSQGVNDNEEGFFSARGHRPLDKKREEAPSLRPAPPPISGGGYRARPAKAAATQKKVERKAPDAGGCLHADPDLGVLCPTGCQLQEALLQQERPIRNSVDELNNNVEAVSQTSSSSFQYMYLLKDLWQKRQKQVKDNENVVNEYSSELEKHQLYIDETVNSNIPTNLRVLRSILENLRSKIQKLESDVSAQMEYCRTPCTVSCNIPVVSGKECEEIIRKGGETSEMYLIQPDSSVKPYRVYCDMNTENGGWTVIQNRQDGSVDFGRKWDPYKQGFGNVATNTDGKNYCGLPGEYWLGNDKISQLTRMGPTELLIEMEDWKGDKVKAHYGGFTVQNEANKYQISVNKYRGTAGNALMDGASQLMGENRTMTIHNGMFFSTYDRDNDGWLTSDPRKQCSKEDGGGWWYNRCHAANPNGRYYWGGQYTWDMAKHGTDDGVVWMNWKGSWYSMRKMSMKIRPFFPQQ
T2 sequence (Q00975 whole entry): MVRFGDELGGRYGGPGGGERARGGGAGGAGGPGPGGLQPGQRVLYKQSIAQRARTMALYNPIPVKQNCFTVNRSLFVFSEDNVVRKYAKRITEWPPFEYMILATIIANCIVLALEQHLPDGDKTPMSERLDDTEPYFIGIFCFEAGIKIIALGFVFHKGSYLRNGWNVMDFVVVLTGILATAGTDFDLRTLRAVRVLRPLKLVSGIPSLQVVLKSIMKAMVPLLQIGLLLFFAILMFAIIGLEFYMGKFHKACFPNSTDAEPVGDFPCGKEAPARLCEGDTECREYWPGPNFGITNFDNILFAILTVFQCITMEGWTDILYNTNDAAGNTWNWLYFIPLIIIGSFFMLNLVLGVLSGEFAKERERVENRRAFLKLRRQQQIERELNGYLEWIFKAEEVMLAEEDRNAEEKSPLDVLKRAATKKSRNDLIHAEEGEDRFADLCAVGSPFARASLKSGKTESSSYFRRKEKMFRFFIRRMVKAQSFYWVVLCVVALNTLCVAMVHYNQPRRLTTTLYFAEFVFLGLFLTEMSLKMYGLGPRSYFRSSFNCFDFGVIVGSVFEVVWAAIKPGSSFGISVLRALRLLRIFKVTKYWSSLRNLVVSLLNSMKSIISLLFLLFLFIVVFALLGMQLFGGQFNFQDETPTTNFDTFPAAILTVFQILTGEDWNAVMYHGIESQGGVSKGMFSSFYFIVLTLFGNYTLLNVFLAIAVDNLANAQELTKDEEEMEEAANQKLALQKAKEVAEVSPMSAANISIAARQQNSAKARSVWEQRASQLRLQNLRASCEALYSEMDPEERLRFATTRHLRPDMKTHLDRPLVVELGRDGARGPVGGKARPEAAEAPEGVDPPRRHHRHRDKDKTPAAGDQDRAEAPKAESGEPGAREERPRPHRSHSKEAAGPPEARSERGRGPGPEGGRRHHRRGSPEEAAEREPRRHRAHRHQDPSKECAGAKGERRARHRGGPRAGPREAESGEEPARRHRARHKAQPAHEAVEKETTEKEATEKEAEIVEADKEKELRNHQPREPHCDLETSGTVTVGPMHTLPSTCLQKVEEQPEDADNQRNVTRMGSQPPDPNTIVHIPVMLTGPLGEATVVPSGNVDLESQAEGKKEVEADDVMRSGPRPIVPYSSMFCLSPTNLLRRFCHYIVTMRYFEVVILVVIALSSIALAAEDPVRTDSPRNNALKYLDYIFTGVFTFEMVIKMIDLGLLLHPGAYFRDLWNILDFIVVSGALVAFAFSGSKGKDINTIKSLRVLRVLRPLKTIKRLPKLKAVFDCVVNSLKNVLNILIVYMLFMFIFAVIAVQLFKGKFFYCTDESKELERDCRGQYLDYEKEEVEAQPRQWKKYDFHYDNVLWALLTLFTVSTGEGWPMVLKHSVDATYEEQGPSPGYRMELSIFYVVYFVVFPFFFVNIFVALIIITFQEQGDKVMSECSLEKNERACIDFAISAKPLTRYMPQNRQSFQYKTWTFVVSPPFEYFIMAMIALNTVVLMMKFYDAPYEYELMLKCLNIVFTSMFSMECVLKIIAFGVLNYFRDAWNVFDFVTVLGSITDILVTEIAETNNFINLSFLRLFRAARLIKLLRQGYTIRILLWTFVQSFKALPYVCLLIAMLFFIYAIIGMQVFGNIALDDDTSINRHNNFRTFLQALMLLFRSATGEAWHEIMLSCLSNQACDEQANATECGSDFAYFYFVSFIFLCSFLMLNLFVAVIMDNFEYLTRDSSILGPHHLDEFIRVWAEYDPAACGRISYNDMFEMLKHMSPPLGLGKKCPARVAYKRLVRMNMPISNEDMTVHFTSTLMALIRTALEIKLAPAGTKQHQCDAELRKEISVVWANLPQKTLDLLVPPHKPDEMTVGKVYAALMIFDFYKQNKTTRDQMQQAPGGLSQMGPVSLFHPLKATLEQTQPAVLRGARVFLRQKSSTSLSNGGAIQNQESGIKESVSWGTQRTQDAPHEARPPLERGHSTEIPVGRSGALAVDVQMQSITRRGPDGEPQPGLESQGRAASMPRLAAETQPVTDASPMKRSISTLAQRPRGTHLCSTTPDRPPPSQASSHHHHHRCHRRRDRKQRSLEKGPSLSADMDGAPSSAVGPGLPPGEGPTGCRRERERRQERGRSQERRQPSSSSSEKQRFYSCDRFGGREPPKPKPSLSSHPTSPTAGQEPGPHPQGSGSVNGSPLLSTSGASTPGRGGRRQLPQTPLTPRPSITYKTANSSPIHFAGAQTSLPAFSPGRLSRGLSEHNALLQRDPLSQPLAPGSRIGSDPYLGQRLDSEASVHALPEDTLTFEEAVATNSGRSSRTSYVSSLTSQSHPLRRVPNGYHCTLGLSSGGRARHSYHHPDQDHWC
T2 sequence (Q02410 whole entry): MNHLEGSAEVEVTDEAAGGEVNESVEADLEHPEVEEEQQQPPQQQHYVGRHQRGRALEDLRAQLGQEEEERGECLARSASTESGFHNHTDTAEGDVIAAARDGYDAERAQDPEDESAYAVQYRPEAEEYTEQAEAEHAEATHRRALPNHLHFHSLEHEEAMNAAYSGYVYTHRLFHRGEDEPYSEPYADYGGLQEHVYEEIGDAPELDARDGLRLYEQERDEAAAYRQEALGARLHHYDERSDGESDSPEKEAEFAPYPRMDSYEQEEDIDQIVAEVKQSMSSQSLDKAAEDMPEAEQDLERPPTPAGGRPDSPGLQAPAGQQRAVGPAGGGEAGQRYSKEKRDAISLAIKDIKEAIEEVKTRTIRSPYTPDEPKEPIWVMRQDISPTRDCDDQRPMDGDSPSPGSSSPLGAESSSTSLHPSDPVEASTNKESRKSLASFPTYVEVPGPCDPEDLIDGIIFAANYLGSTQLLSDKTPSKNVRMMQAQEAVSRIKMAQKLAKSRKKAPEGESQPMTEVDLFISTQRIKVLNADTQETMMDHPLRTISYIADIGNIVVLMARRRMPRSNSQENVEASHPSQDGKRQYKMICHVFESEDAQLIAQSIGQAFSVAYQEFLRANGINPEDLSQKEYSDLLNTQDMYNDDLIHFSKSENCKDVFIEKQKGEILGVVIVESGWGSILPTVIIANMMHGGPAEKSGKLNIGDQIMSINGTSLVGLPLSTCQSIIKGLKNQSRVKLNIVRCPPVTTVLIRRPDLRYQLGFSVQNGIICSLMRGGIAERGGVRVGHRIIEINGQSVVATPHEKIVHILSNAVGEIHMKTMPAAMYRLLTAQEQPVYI
Chain of Cytochrome P450 3A4 (P08684 whole entry): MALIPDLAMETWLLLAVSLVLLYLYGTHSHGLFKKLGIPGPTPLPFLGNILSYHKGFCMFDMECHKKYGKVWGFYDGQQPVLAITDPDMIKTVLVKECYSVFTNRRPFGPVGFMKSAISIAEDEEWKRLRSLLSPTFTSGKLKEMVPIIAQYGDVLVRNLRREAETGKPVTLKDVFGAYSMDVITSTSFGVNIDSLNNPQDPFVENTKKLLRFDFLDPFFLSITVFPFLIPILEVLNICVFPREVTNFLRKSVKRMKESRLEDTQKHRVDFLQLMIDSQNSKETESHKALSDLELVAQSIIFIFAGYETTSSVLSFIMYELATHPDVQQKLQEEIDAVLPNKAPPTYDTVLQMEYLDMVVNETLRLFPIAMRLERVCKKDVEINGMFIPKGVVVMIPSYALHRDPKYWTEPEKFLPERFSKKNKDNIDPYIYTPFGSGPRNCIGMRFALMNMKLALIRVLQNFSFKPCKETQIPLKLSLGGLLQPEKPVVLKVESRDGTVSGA
Chain of 72 kDa type IV collagenase (P08253 whole entry): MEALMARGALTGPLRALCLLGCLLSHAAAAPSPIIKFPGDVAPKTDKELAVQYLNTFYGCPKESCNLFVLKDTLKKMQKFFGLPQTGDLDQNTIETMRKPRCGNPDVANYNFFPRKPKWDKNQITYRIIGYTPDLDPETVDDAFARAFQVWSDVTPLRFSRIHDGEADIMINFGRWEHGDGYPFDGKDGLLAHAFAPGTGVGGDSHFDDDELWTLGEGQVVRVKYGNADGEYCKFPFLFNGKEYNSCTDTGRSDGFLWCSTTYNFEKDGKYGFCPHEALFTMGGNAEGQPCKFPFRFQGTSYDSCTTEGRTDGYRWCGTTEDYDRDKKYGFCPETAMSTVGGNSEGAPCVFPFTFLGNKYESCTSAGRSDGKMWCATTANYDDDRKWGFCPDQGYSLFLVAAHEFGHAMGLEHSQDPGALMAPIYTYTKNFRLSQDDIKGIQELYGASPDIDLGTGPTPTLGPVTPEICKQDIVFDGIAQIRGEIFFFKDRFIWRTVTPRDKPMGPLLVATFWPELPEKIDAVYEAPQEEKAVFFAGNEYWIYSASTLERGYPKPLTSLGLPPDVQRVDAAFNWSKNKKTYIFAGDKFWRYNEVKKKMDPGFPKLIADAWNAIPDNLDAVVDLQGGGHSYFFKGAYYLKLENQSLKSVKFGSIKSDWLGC

In the case of `CSc1ccc(C2C(C#N)=C(N)Oc3c2ccc(=O)c2c(C)oc(C)c32)cc1` (stereo not drawn), the IC50 in data set [1] was > 50 µM (not active); in data set [2] it was > 50 µM (not active); in [4], > 53.2 µM (active). The CC50 in data set [3] was > 40 µM (active).

Turning to `NS(=O)(=O)c1ccc(NS(=O)(=O)c2ccc(NC(=O)c3ccc(-c4ccccc4)cc3)cc2)cc1`, the IC50 in [5] was 12.1 µM (active); in data set [6], > 50 µM (inactive); in [8] it was 6.71 µM (active); in [9] it was > 100 µM (inactive); in data set [10], 33.4 µM (active); in [11], 14.3 µM (inactive). In addition, the IC50 in data set [12] is > 83.3 µM (inactive). Moreover, the AC50 in data set [7] was 0.562 µM (inconclusive); in data set [13], “inconclusive”.

With `Cc1oc(-c2ccc(-c3ccccc3)cc2)nc1CN(C)C1CCOC1` (stereo not drawn), the 50% inhibitory concentration (IC50) is 0.235 µM (active) in [14] and 13.7 µM (active) in [15].

In the case of `CN(C)S(=O)(=O)c1ccc(NC(=O)N2CCN(c3cccc(C(F)(F)F)c3)CC2)cc1`, the EC50 in data set [16] was 3.61 µM (active); in data set [17], > 60 µM (not active). Moreover, the CC50 in [18] was > 40 µM (active).
